Source: PubChem BioAssay (NCI)
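Dose response: 5 concentrations. Exposure: 48 h. Format: 96-well plates. Endpoint: linear interpolation; highest concentration if not reached. GI50: concentration for 50% inhibition of growth. At the TGI there is no net growth.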

Columns and labels:
Assay in all cases: NCI anticancer screen, dose series, 48 h
[1] = test system: MDA-MB-435
[2] = test system: SK-MEL-2 melanoma
[3] = test system: SN12C renal
[4] = test system: HOP-62 NSCLC
[5] = test system: SR leukemia
[6] = test system: UACC-257 melanoma
[7] = test system: CCRF-CEM leukemia
[8] = test system: MOLT-4 leukemia
[9] = test system: NCI-H23 lung
[10] = test system: SF-268 CNS
[11] = test system: PC-3 prostate
[12] = test system: T-47D breast
[13] = test system: MDA-MB-468 breast
[14] = test system: A498 renal
[15] = test system: OVCAR-5 ovarian
[16] = test system: COLO 205 colon
[17] = test system: MDA-MB-231 breast
[18] = test system: RPMI-8226 leukemia
[19] = test system: SK-OV-3 ovarian
[20] = test system: UO-31 renal
[21] = test system: OVCAR-4 ovarian
[22] = test system: 786-0 renal
[23] = test system: RXF 393 renal
[24] = test system: HCT-116 colon
[25] = test system: NCI-H522 lung
[26] = test system: MCF7 breast
[27] = test system: M14 melanoma
[28] = test system: EKVX NSCLC
[29] = test system: HL-60(TB) leukemia
[30] = test system: MALME-3M melanoma
[31] = test system: SNB-19 CNS
[32] = test system: A549 NSCLC
[33] = test system: BT-549 breast
[34] = test system: HS 578T breast
[35] = test system: UACC-62 melanoma
[36] = test system: SK-MEL-28 melanoma
[37] = test system: SK-MEL-5 melanoma
[38] = test system: KM12 colon
[39] = test system: TK-10 renal
[40] = test system: SF-295 CNS
[41] = test system: LOX IMVI melanoma
[42] = test system: DU-145 prostate
[43] = test system: OVCAR-8 ovarian
[44] = test system: CAKI-1 renal
[45] = test system: IGROV1 ovarian
[46] = test system: HCT-15 colon
[47] = test system: OVCAR-3 ovarian
[48] = test system: HOP-92 NSCLC
[49] = test system: SF-539 CNS
[50] = test system: ACHN renal
[51] = test system: NCI-H226 lung

## COc1ccc2[nH]cc(-c3cc4nc(-c5cn(C)c6ncccc56)cc(N)n4n3)c2c1
[1]
  GI50: 10.8 µM
  TGI: 27.8 µM
[2]
  GI50: 19.3 µM
  TGI: 53.2 µM
[3]
  GI50: 6.93 µM
  TGI: 23.8 µM
[4]
  GI50: 10.2 µM
  TGI: > 100 µM
[5]
  GI50: 2.55 µM
  TGI: > 100 µM
[6]
  GI50: 21.5 µM
  TGI: 55.4 µM
[7]
  GI50: 2.56 µM
  TGI: > 100 µM
[8]
  GI50: 1.79 µM
  TGI: > 100 µM
[9]
  GI50: 6.29 µM
  TGI: 24.7 µM
[10]
  GI50: 13.5 µM
  TGI: > 100 µM
[11]
  GI50: 6.67 µM
  TGI: > 100 µM
[12]
  GI50: 5.77 µM
  TGI: 90.1 µM
[13]
  GI50: 1.53 µM
  TGI: 3.12 µM
[14]
  GI50: 25.3 µM
  TGI: 49.4 µM
[15]
  GI50: 4.66 µM
  TGI: 19.2 µM
[16]
  GI50: 4.71 µM
  TGI: > 100 µM
[17]
  GI50: 2.33 µM
  TGI: 5.2 µM
[18]
  GI50: 3.05 µM
  TGI: > 100 µM
[19]
  GI50: 52.8 µM
  TGI: > 100 µM
[20]
  GI50: 3.59 µM
  TGI: 17.5 µM
[21]
  GI50: 2.06 µM
  TGI: 5.15 µM
[22]
  GI50: 1.54 µM
  TGI: 2.92 µM
[23]
  GI50: 1.67 µM
  TGI: 3.27 µM
[24]
  GI50: 3.6 µM
  TGI: 33.5 µM
[25]
  GI50: 4.48 µM
  TGI: > 100 µM
[26]
  GI50: 2.01 µM
  TGI: 4.94 µM
[27]
  GI50: 4.56 µM
  TGI: 32.3 µM
[28]
  GI50: 8.55 µM
  TGI: 62.3 µM
[29]
  GI50: 1.48 µM
  TGI: 4.78 µM
[30]
  GI50: 5.02 µM
  TGI: 18.3 µM
[31]
  GI50: 8.67 µM
  TGI: 32.2 µM
[32]
  GI50: 2.75 µM
  TGI: > 100 µM
[33]
  GI50: 7.03 µM
  TGI: 38.3 µM
[34]
  GI50: 20.3 µM
  TGI: 64.6 µM
[35]
  GI50: 14.2 µM
  TGI: 27.8 µM
[36]
  GI50: 10.8 µM
  TGI: 23.4 µM
[37]
  GI50: 6.18 µM
  TGI: 19.3 µM
[38]
  GI50: 3.41 µM
  TGI: > 100 µM
[39]
  GI50: 19.1 µM
  TGI: > 100 µM
[40]
  GI50: 1.68 µM
  TGI: 3.26 µM
[41]
  GI50: 2.02 µM
  TGI: 3.6 µM
[42]
  GI50: 6.36 µM
  TGI: > 100 µM
[43]
  GI50: 4.93 µM
  TGI: > 100 µM
[44]
  GI50: 4.03 µM
  TGI: 23.5 µM
[45]
  GI50: 2.12 µM
  TGI: 4.93 µM
[46]
  GI50: 1.91 µM
  TGI: 4.53 µM
[47]
  GI50: 12.5 µM
  TGI: > 100 µM
[48]
  GI50: 4.84 µM
  TGI: 51.7 µM
[49]
  GI50: 1.63 µM
  TGI: 3.05 µM
[50]
  GI50: 3.48 µM
  TGI: 12.5 µM
[51]
  GI50: 20.4 µM
  TGI: 57.2 µM
